Test results reported in patent US8202881B2, “JAK2 inhibitors and their use for the treatment of myeloproliferative diseases and cancer” (Bristol-Meyers Squibb Company, priority 2009, dated 2012).

Tests used:
[1] = biological target: JAK2 (Homo sapiens, UniProt O60674); assay: JAK2 Tyrosine Kinase Assay; format: biochemical; conditions: for IC50: ATP 30 μM, JAK2 1 nM, 60 min room temperature
Procedure: JAK2 Tyrosine Kinase Assay
The assays were performed in V-bottom 384-well plates. The final assay volume was 30 μL prepared from 15 μL additions of enzyme and substrates (fluoresceinated peptide and ATP) and test compounds in assay buffer (100 mM HEPES pH 7.4, 10 mM MgCl2, 25 mM Beta-Glycerolphosphate, 0.015% Brij35 and 4 mM DTT). The reaction was initiated by the combination of JAK2 with substrates and test compounds. The reaction was incubated at room temperature for 60 min. and terminated by adding 45 μL of 35 mM EDTA to each sample. The reaction mixture was analyzed on the Caliper LabChip 3000 by electrophoretic separation of the fluorescent substrate and phosphorylated product. Inhibition data were calculated by comparison to no enzyme control reactions for 100% inhibition and vehicle-only reactions for 0% inhibition. The final concentration of reagents in the assays is ATP, 30 μM; JAK2 fluorescent peptide, 1.5 μM; JAK2, 1 nM; and DMSO, 1.6%. Dose response curves were generated to determine the concentration required inhibiting 50% of kinase activity (IC50). Compounds were dissolved at 10 mM in dimethylsulfoxide (DMSO) and evaluated at eleven concentrations, each in duplicate. IC50 values were derived by non-linear regression analysis

[2] = test system: SET-2 cells; assay: Cell Proliferation Inhibition Assay (3H-thymidine incorporation); format: cell-based; conditions: Homo sapiens, 72 h with compound
Procedure: Cell Proliferation Inhibition Assay
Compounds were evaluated for their ability to inhibit cell proliferation, using an assay that measures thymidine incorporation in the DNA of the dividing cell, which is directly correlated with cell numbers. SET-2 cells were plated at 10000 cells/well in 96-well plates and were cultured for 24 h in RPMI-1640 supplemented with 20% fetal bovine serum, before test compounds were added. Compounds were diluted in culture medium such that the final concentration of dimethyl sulfoxide never exceeded 0.1%. Following the addition of compounds, the cells were cultured for an additional 72 h before cell proliferation was determined by measuring DNA synthesis with 3H-thymidine incorporation.

Chain of JAK2 (O60674 whole entry): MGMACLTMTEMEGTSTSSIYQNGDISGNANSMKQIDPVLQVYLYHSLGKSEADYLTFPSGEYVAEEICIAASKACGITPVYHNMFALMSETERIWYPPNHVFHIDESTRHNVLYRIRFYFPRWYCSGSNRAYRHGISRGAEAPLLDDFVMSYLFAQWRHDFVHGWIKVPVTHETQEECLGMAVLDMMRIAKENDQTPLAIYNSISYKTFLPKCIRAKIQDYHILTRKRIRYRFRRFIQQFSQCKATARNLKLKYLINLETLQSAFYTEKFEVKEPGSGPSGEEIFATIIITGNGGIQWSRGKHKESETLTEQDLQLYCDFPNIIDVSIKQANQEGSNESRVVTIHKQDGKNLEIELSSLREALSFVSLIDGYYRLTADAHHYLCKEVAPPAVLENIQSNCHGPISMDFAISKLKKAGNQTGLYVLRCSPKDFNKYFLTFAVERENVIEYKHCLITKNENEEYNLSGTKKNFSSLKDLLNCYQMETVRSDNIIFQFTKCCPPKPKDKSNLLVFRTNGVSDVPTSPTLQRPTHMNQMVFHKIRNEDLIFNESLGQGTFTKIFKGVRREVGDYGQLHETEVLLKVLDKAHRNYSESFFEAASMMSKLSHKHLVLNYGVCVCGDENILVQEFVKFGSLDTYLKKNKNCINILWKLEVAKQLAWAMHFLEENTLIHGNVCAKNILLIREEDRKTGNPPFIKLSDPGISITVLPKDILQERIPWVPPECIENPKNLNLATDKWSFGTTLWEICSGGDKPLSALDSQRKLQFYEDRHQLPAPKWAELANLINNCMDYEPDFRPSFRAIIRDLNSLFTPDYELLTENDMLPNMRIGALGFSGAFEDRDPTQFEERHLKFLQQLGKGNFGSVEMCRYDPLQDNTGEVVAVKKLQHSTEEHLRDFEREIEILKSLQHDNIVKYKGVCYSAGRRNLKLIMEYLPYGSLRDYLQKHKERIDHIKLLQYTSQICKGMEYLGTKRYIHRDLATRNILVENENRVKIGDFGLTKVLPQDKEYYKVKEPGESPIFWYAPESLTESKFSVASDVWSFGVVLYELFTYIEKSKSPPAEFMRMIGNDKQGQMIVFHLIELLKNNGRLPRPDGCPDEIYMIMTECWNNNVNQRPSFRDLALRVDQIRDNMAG

Row | SMILES | IC50 [1] | activity against JAK2 ([1]; result in words) | IC50 [2]
1 | CCn1c(C(=O)N(C2CC2)C2CC2)cc2c3c(ncn3C)c(Nc3nc(C(=O)NC4CCS(=O)(=O)C4)cs3)nc21 (stereo not shown) [Example 15, N,N-dicyclopropyl-4-((4-((1,1-dioxidotetrahydro-3-thiophenyl)carbamoyl)-1,3-thiazol-2-yl)amino)-6-ethyl-1-methyl-1,6-dihydroimidazo[4,5-d]pyrrolo[2,3-b]pyridine-7-carboxamide] | 1.52 nM | – | 490 nM
2 | CCn1c(C(=O)N(C2CC2)C2CC2)cc2c3c(ncn3C)c(Nc3nc4c(s3)CS(=O)(=O)CC4)nc21 [Example 33, 4-(5,5-dioxo-4,5,6,7-tetrahydro-5λ^6-thiopyrano[4,3-d]thiazol-2-ylamino)-6-ethyl-1-methyl-1,6-dihydro-1,3,5,6-tetraaza-as-indacene-7-carboxylic acid dicyclopropylamide] | 0.637 nM | – | 10 nM
3 | CCNC(=O)c1nc(Nc2nc3c(cc(C(=O)N(C4CC4)C4CC4)n3CC)c3c2ncn3C)sc1C [Example 49, 2-(7-(dicyclopropylcarbamoyl)-6-ethyl-1-methyl-1,6-dihydroimidazo[4,5-d]pyrrolo[2,3-b]pyridine-4-ylamino)-N-ethyl-5-methylthiazole-4-carboxamide] | 50 nM | – | 3930 nM
4 | CCn1c(C(=O)N(C2CC2)C2CC2)cc2c3c(ncn3C)c(Nc3nc(C)c(C(=O)NCCOC)s3)nc21 [Example 53, 2-(7-(dicyclopropylcarbamoyl)-6-ethyl-1-methyl-1,6-dihydroimidazo[4,5-d]pyrrolo[2,3-b]pyridin-4-ylamino)-N-(2-methoxyethyl)-4-methylthiazole-5-carboxamide] | 1.47 nM | – | 100 nM
5 | CCn1c(C(=O)N(C2CC2)C2CC2)cc2c3c(ncn3C)c(Nc3nc(C)c(C(=O)N4CCC4)s3)nc21 [Example 55, 4-(5-(azetidine-1-carbonyl)-4-methylthiazol-2-ylamino)-N,N-dicyclopropyl-6-ethyl-1-methyl-1,6-dihydroimidazo[4,5-d]pyrrolo[2,3-b]pyridine-7-carboxamide] | 0.748 nM | – | 4.3 nM
6 | CCn1c(C(=O)N(C2CC2)C2CC2)cc2c3c(ncn3C)c(Nc3nc(C)c(C(=O)NCC#N)s3)nc21 [Example 61, 4-((5-((cyanomethyl)carbamoyl)-4-methyl-1,3-thiazol-2-yl)amino)-N,N-dicyclopropyl-6-ethyl-1-methyl-1,6-dihydroimidazo[4,5-d]pyrrolo[2,3-b]pyridine-7-carboxamide] | 0.751 nM | – | –
7 | CCn1c(C(=O)N(C2CC2)C2CC2)cc2c3c(ncn3C)c(Nc3nc(C)c(C(=O)N4CCS(=O)(=O)CC4)s3)nc21 [Example 70] | 0.733 nM | – | 330 nM
8 | CCn1nc(Nc2nc3c(cc(C(=O)N(C4CC4)C4CC4)n3CC)c3c2ncn3C)cc1C(=O)NCCNC(C)=O [Example 109, 4-((5-((2-acetamidoethyl)carbamoyl)-1-ethyl-1H-pyrazol-3-yl)amino)-N,N-dicyclopropyl-6-ethyl-1-methyl-1,6-dihydroimidazo[4,5-d]pyrrolo[2,3-b]pyridine-7-carboxamide] | 1.52 nM | – | 4150 nM
9 | CCNC(=O)c1cc2c(nc(NC)c3ncn(C)c32)[nH]1 [Example No. A171, reference compound] | – | weak activity | –

Second part, led by results:

Row | IC50 [1] | activity against JAK2 ([1]; result in words) | SMILES | IC50 [2]
10 | 1.5 nM | – | CCn1c(C(=O)N(C2CC2)C2CC2)cc2c3c(ncn3C)c(Nc3nc(CF)cs3)nc21 [Example 3, N,N-dicyclopropyl-6-ethyl-4-(4-(fluoromethyl)thiazol-2-ylamino)-1-methyl-1,6-dihydroimidazo[4,5-d]pyrrolo[2,3-b]pyridine-7-carboxamide] | 10 nM
11 | 30 nM | – | CCn1c(C(=O)N(C2CC2)C2CC2)cc2c3c(ncn3C)c(Nc3nc(C(C)(C)C)cs3)nc21 [Example 4, 4-(4-tert-butylthiazol-2-ylamino)-N,N-dicyclopropyl-6-ethyl-1-methyl-1,6-dihydroimidazo[4,5-d]pyrrolo[2,3-b]pyridine-7-carboxamide] | 2530 nM
12 | 10 nM | – | CCn1c(C(=O)N(C2CC2)C2CC2)cc2c3c(ncn3C)c(Nc3nc(C(F)(F)F)c(C)s3)nc21 [Example 29, N,N-dicyclopropyl-6-ethyl-1-methyl-4-(5-methyl-4-(trifluoromethyl)thiazol-2-ylamino)-1,6-dihydroimidazo[4,5-d]pyrrolo[2,3-b]pyridine-7-carboxamide] | 10000 nM
13 | 1.5 nM | – | CCn1c(C(=O)N(C2CC2)C2CC2)cc2c3c(ncn3C)c(Nc3nc(C)c(C(C)=O)s3)nc21 [Example 34, 4-(5-acetyl-4-methylthiazol-2-ylamino)-N,N-dicyclopropyl-6-ethyl-1-methyl-1,6-dihydroimidazo[4,5-d]pyrrolo[2,3-b]pyridine-7-carboxamide] | 240 nM
14 | 0.536 nM | – | CCn1c(C(=O)N(C2CC2)C2CC2)cc2c3c(ncn3C)c(Nc3nc4cc[nH]c(=O)c4s3)nc21 [Example 35, N,N-dicyclopropyl-6-ethyl-1-methyl-4-(4-oxo-4,5-dihydrothiazolo[5,4-c]pyridin-2-ylamino)-1,6-dihydroimidazo[4,5-d]pyrrolo[2,3-b]pyridine-7-carboxamide] | 2850 nM
15 | 40 nM | – | CCn1c(C(=O)N(C2CC2)C2CC2)cc2c3c(ncn3C)c(Nc3ncc(C#N)s3)nc21 [Example 38, 4-(5-cyanothiazol-2-ylamino)-N,N-dicyclopropyl-6-ethyl-1-methyl-1,6-dihydroimidazo[4,5-d]pyrrolo[2,3-b]pyridine-7-carboxamide] | 60 nM
16 | 1 nM | – | CCn1c(C(=O)N(C2CC2)C2CC2)cc2c3c(ncn3C)c(Nc3cc(C)n(C)n3)nc21 [Example 73, N,N-dicyclopropyl-4-(1,5-dimethyl-1H-pyrazol-3-ylamino)-6-ethyl-1-methyl-1,6-dihydroimidazo[4,5-d]pyrrolo[2,3-b]pyridine-7-carboxamide] | 60 nM
17 | 15.2 nM | – | CCn1c(C(=O)N(C2CC2)C2CC2)cc2c3c(ncn3C)c(Nc3cc(C)n(C4CCC4)n3)nc21 [Example 81, 4-(1-cyclobutyl-5-methyl-1H-pyrazol-3-ylamino)-N,N-dicyclopropyl-6-ethyl-1-methyl-1,6-dihydroimidazo[4,5-d]pyrrolo[2,3-b]pyridine-7-carboxamide] | 339 nM
18 | 0.695 nM | – | CCn1c(C(=O)N(C2CC2)C2CC2)cc2c3c(ncn3C)c(Nc3cnn(C)c3)nc21 [Example 98, N,N-dicyclopropyl-6-ethyl-1-methyl-4-(1-methyl-1H-pyrazol-4-ylamino)-1,6-dihydroimidazo[4,5-d]pyrrolo[2,3-b]pyridine-7-carboxamide] | 7.37 nM
19 | 0.743 nM | – | CCn1nc(Nc2nc3c(cc(C(=O)N(C4CC4)C4CC4)n3CC)c3c2ncn3C)cc1C(=O)O [Example 101, 3-(7-(dicyclopropylcarbamoyl)-6-ethyl-1-methyl-1,6-dihydroimidazo[4,5-d]pyrrolo[2,3-b]pyridin-4-ylamino)-1-ethyl-1H-pyrazole-5-carboxylic acid] | 10000 nM
20 | 1.49 nM | – | CCn1c(C(=O)N(C2CC2)C2CC2)cc2c3c(ncn3C)c(Nc3cc(CN4CCOCC4)n(C)n3)nc21 [Example 116, N,N-dicyclopropyl-6-ethyl-1-methyl-4-(1-methyl-5-(morpholinomethyl)-1H-pyrazol-3-ylamino)-1,6-dihydroimidazo[4,5-d]pyrrolo[2,3-b]pyridine-7-carboxamide] | 170 nM
21 | 50 nM | – | CCn1c(C(=O)N(C2CC2)C2CC2)cc2c3c(ncn3C)c(Nc3nc(C)n(C)n3)nc21 [Example 125, N,N-dicyclopropyl-4-(1,5-dimethyl-1H-1,2,4-triazol-3-ylamino)-6-ethyl-1-methyl-1,6-dihydroimidazo[4,5-d]pyrrolo[2,3-b]pyridine-7-carboxamide] | 1270 nM
